Literature values as cited in US20250073171A1, “DRUG DELIVERY SYSTEM FOR THE TREATMENT OF FEMALE SEXUAL INTEREST AND AROUSAL DISORDER” (Freya Pharma Solutions Holding B.V., priority 2023, published 2025).

Tests used:
[1] = target: albumin (Homo sapiens, UniProt P02768); details: bloodstream
[2] = target: T1, SHBG (Homo sapiens, UniProt P04278); details: bloodstream
T1 sequence (P04278 30-402): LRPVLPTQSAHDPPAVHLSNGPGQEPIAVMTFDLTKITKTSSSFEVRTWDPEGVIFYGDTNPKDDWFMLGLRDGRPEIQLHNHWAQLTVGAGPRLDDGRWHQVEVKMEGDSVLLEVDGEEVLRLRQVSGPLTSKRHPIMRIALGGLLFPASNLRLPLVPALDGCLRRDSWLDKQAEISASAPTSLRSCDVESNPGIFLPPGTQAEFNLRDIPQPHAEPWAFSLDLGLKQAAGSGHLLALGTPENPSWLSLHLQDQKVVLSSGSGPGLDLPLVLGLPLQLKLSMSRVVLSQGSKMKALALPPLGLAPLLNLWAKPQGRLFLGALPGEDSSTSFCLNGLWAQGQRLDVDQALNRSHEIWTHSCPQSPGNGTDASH

Sequence of albumin (P02768 25-609): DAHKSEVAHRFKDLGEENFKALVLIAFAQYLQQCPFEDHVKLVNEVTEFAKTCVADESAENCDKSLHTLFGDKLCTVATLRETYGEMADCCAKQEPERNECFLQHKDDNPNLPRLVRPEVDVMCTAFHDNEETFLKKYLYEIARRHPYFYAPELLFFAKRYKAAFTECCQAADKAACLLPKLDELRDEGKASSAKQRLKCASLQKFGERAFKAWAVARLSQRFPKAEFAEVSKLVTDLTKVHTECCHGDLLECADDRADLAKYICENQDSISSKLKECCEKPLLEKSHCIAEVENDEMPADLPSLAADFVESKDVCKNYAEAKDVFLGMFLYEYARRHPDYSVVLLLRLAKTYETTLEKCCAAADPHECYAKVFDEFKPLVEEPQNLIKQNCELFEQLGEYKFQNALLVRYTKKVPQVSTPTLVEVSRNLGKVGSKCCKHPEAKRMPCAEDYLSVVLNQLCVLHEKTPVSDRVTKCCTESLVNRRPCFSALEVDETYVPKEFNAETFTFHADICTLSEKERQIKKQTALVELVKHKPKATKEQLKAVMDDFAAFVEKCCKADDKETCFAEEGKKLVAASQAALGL

SMILES: C[C@]12CC[C@H]3[C@@H](CCC4=CC(=O)CC[C@@]43C)[C@@H]1CC[C@@H]2O [testosterone, 17-[beta]-hydroxyandrost-4-en-3-one]
- free testosterone, percentage of total testosterone (bloodstream): 1-2%
- T1/2 of free testosterone (metabolism of free testosterone): approximately 10 min
- albumin-bound testosterone, percentage of total testosterone [1]: 30-40%
- SHBG-bound testosterone, percentage of total testosterone [2]: 60-70%
